In publication PMC9775191, “A Subset Screen of the Compounds Australia Scaffold Library Identifies 7-Acylaminodibenzoxazepinones as Potent and Selective Hits for Anti-Giardia Drug Discovery” (Biomedicines, 2022):

tested on: G. duodenalis BRIS/91/HEPU/1279; assay: Primary Giardia screen at 10 µM (live-cell imaging, automated counting); assay type: cell-based, Giardia duodenalis; conditions: 24 h
Summary of the method: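 Compounds were tested once each at 10 μM final (0.2% DMSO) in culture medium under 3% O2, 5% CO2 in N2. Growth was read at 24 and 48 h by live-cell imaging with automated counting, and inhibition expressed as percent growth versus 0.2% DMSO vehicle after media-only background subtraction.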

Compound | Average % Inhibition 24h
Cc1ccc(-c2nnn(CC(=O)N3CCCCCC3c3cccn3C)n2)cc1 (stereo not shown) [SN00778086] | 2.1%
CCOC(=O)N1CCN(C(=O)c2nn(-c3ccccc3)c3c2CCC3)CC1 [SN00778954] | 6.2%

same assay, conditions: 24 h, first singlicate assay

Compound | % Inhibition n=1 24h
Cc1ccc(-c2nnn(CC(=O)N3CCCCCC3c3cccn3C)n2)cc1 (stereo not shown) [SN00778086] | 0.0%
CCOC(=O)N1CCN(C(=O)c2nn(-c3ccccc3)c3c2CCC3)CC1 [SN00778954] | 12.5%

same assay, conditions: 24 h, re-assessment

Compound | % Inhibition n=2 24h
Cc1ccc(-c2nnn(CC(=O)N3CCCCCC3c3cccn3C)n2)cc1 (stereo not shown) [SN00778086] | 4.1%
CCOC(=O)N1CCN(C(=O)c2nn(-c3ccccc3)c3c2CCC3)CC1 [SN00778954] | 0.0%

same assay, conditions: 48 h

Compound | Average % Inhibition 48h
Cc1ccc(-c2nnn(CC(=O)N3CCCCCC3c3cccn3C)n2)cc1 (stereo not shown) [SN00778086] | 28.3%
CCOC(=O)N1CCN(C(=O)c2nn(-c3ccccc3)c3c2CCC3)CC1 [SN00778954] | 36.1%

same assay, conditions: 48 h, first singlicate assay

Compound | % Inhibition n=1 48h
O=C(c1cc(C2CC2)nc2ccccc12)N1CC2CCC1C2 (stereo not shown) [SN00777604] | 18.4%
O=C(Nc1ccccc1)N1CCCC1CN1CCCCC1 (stereo not shown) [SN00772093] | 16.8%
O=c1c2cc(-c3cccs3)nn2ccn1Cc1nc(-c2cccc(F)c2)no1 [SN00790579] | 8.1%
CNC(=O)Cc1noc(-c2cccc(-n3cccn3)n2)n1 [SN00781149] | 4.9%
Cc1ccc([N+](=O)[O-])cc1NC(=O)N1CCC(n2cncn2)CC1 [SN00781334] | 0.0%
Cc1noc2ncnc(N3CCCC(C(=O)N4CCCCCC4)C3)c12 (stereo not shown) [SN00788609] | 0.0%
Cc1ccc2oc(N3CCN(C(=O)C(C)c4ccccc4)CC3)nc2n1 (stereo not shown) [SN00786842] | 24.1%
O=C(NCc1ccccc1)c1nc[nH]c1C(=O)NCc1cccc(C(F)(F)F)c1 [SN00786288] | 20.4%
Cc1ccc(-c2nnn(CC(=O)N3CCCCCC3c3cccn3C)n2)cc1 (stereo not shown) [SN00778086] | 56.5%
Cc1ccc(N2CC(C(=O)N3CCCC3c3nc(-c4cccc(C)c4)no3)CC2=O)cc1 (stereo not shown) [SN00797413] | 0.0%
c1cnc(N2CCCN(c3nc4ccccc4o3)CC2)nc1 [SN00778442] | 32.5%
CC1Cc2ccccc2N1C(=O)c1cc(-c2cccnc2)[nH]n1 (stereo not shown) [SN00792679] | 19.0%
Cc1ccc(NC(=O)Cc2nc(-c3ccc4c(c3)CC(=O)N4C)cs2)cc1 [SN00777029] | 10.0%
COC(=O)C1=C(C)N(C(C)C)C(=O)C1(NC(=O)C1CCCCC1)C(F)(F)F (stereo not shown) [SN00784094] | 0.0%
COCCNC(=O)c1nc[nH]c1C(=O)NC(C)C [SN00786292] | 8.3%
CCC(=O)N1CCC2(CC1)N=C(c1cccc(OC)c1)C(=O)N2 [SN00792731] | 18.9%
CN(C)C(=O)c1[nH]nc2c1CN(C(=O)CCc1ccccc1)CC2 [SN00800269] | 0.0%
O=S1(=O)CCC(Nc2nc(-c3ccccn3)nc3scc(-c4ccccc4)c23)C1 (stereo not shown) [SN00776030] | 24.9%
CCN1c2cc(Cl)ccc2C(=O)NC12CCN(C(=O)Nc1ccc3c(c1)OCO3)CC2 [SN00800192] | 8.9%
Cc1ccc(-n2nc3c(c2NC(=O)COc2ccccc2)CS(=O)(=O)C3)c(C)c1 [SN00802785] | 16.6%
Cc1ccc(S(=O)(=O)N(C)c2ccsc2C(=O)Nc2ccc(C)c(C)c2)cc1 [SN00797041] | 12.0%
Cc1oc(-c2ccccc2)nc1C(=O)N1CCN(S(=O)(=O)c2ccc(Br)s2)CC1 [SN00769595] | 23.5%
Cc1ccc(NC(=O)c2nc3c(=O)n(Cc4ccccc4C)c4cc(C)ccc4n3n2)cc1 [SN00794983] | 3.1%
O=C(Nc1cccc(C(F)(F)F)c1)c1cnn2c(C(F)(F)F)cc(-c3ccco3)nc12 [SN00784128] | 9.2%
COCCNc1c(-c2ccc(O)cc2)nc2sc3cc(C)ccc3n12 [SN00795351] | 0.0%
CC(C)(C)C(=O)N1CCC(C(=O)N2CC=C(c3ccc(F)cc3)CC2)CC1 [SN00770003] | 0.0%

Compound | % Inhibition n=1 48h
Cn1c(=O)[nH]c(=O)c2c1nc(N1CCNCC1)n2Cc1ccc(Br)cc1 [SN00776836] | 0.0%
CSc1ccc(NC(=O)N2C[C@@H]3C[C@H]2C[C@@H]3NC(=O)c2cccs2)cc1 (relative stereo) [SN00800991] | 17.8%
CC(C)(C)OC(=O)N1CCCC(N(Cc2ccccc2)C(=O)Cc2csc(-c3cccnc3)n2)C1 (stereo not shown) [SN00774555] | 0.0%
Cc1csc(C2CCN(C(=O)c3ccccc3[N+](=O)[O-])CC2)n1 [SN00781474] | 8.2%
O=C1CC(C(=O)N2CCCCC2Cn2cccn2)CN1C1CCCC1 (stereo not shown) [SN00782719] | 0.0%
O=C1CC(c2noc(-c3ccc(F)cc3)n2)CN1c1ccc(F)cc1 (stereo not shown) [SN00801778] | 9.0%
CCOc1ccc(-n2c(=O)c3c4c(sc3n(Cc3cccnc3)c2=O)CCC4)cc1 [SN00784617] | 0.0%
O=C(Nc1cccc(F)c1)c1nnc(C2CCCN2C(=O)Nc2cccc(C(F)(F)F)c2)s1 (stereo not shown) [SN00790473] | 8.5%
NC(=O)c1nn2c(C(F)(F)F)cc(-c3ccccc3)nc2c1Br [SN00783344] | 38.7%
CCOC(=O)N1CCN(C(=O)c2nn(-c3ccccc3)c3c2CCC3)CC1 [SN00778954] | 38.8%
Cc1ccc(S(=O)(=O)N2CCN(C)c3ccccc32)cc1 [SN00795395] | 8.6%
CCOc1ccc(-c2nc(CSCC(=O)N3CCN(c4ccc(Cl)cc4)CC3)c(C)o2)cc1 [SN00794684] | 0.0%
CC1CCN(C(=O)c2n[nH]c(=O)c3ccccc23)CC1 [SN00774511] | 0.0%
Cc1ccccc1C(=O)N1CCC(Cc2nnc(-c3ccccc3)o2)CC1 [SN00799218] | 12.0%
O=c1ccccn1Cc1nnc(-c2ccc(Br)o2)o1 [SN00773952] | 8.9%
CC(C)CN1CC(C(=O)N2CCC(Nc3cccnn3)CC2)CC1=O (stereo not shown) [SN00774466] | 0.0%
CCN(c1ccc(-c2csc(Cc3nnc4n3CCCCC4)n2)cc1)S(C)(=O)=O [SN00776436] | 17.3%
Cc1ccc(NC(=O)Nc2ccc3c(c2)CCN3S(=O)(=O)c2ccccc2)cc1 [SN00796277] | 10.0%
CCCCOc1ccc(CNC(=O)C2CCN(c3nccc4sc(C)cc34)CC2)cc1 [SN00797785] | 27.9%
COc1cc(OC)c(NC(=O)N2CCN(c3nc4ccccc4n3C)CC2)cc1Cl [SN00794807] | 0.0%
O=C(N1CCC(CCOCc2cccc(F)c2)CC1)C1(c2ccccc2)CC1 [SN00799224] | 0.0%
CCn1c(C2NC(N)=Nc3nc4ccccc4n32)nc2ccccc21 (stereo not shown) [SN00776112] | 5.4%
CCCCNC(=O)c1cccc(N2CCCC2=O)c1 [SN00784930] | 4.7%
O=C(c1cccc(Br)c1)N1CCC(c2nc3ccccc3[nH]2)CC1 [SN00786922] | 0.0%
COc1ccc(CNC(=O)c2ccc(-c3noc(C4CCCN(C(=O)c5ccccc5)C4)n3)cc2)cc1 (stereo not shown) [SN00797402] | 14.7%
c1ccc(-c2cc(CN3CCOC(Cn4cncn4)C3)on2)cc1 (stereo not shown) [SN00778747] | 6.8%

Compound | % Inhibition n=1 48h
COCCN1CCCN(C(=O)C2CCCN(S(C)(=O)=O)C2)CC1 (stereo not shown) [SN00782901] | 15.1%
O=[N+]([O-])c1ccc(S(=O)(=O)N2CCCCCC2c2cccs2)cc1 (stereo not shown) [SN00793856] | 39.9%
COc1ccc(-c2cc3nc4c(c(=O)n3[nH]2)CNCC4)cc1 [SN00800876] | 0.0%
CN1c2ccccc2OCC1CC(=O)Nc1ccc(F)cc1 (stereo not shown) [SN00790682] | 7.6%
Cc1ncc(C(=O)NC2C3CCCOC3C2(C)C)s1 (stereo not shown) [SN00782098] | 9.0%
O=C(Nc1nnc(-c2ccccn2)[nH]1)C1CC(=O)N(CC(F)(F)F)C1 (stereo not shown) [SN00776806] | 9.5%
COc1cccc(CCC(=O)N2CCCC(c3nnc4n3CCCCC4)C2)c1 (stereo not shown) [SN00771943] | 2.6%
CC(C)c1csc(-c2ccc(S(=O)(=O)NCc3ccc(Cl)cc3)s2)n1 [SN00798864] | 0.0%
CCOC(=O)c1ccc(NC(=O)Cn2c(=O)cc(-c3nc(C)no3)c3ccccc32)cc1 [SN00798707] | 2.1%
O=C(CN1CCN(Cc2ccccc2)C1=O)NCc1ccc(Cl)cc1 [SN00784814] | 0.0%
Cc1ccc(CNC(=O)N2CCCN(C3CCN(CC4CC4)C3=O)CC2)cc1 (stereo not shown) [SN00802402] | 5.4%
COc1ccccc1CCC(=O)N1CCN(c2ncnc3[nH]cnc23)CC1 [SN00787062] | 0.0%
Cc1nn(-c2ccc(F)cc2)c2nc(N3CCCN(C(=O)Cc4cccs4)CC3)sc12 [SN00803162] | 27.0%
CN(C)CCCN1C(=O)C(O)=C(C(=O)c2cc(Cl)ccc2O)C1c1ccco1 (stereo not shown) [SN00776642] | 14.6%
Cc1c(C(=O)O)sc2ncnc(NC3CCCCCC3)c12 [SN00793181] | 3.6%
CCCCN(CC)CCNC(=O)C1=C(C)C(=O)OC12CCN(CC)CC2 [SN00787839] | 0.0%
O=C(Cn1c(-c2ncccn2)noc1=O)N1CCCCC1 [SN00781438] | 1.7%
O=C(Nc1cnn(Cc2cn3ccccc3n2)c1)Nc1ccc(F)cc1F [SN00774154] | 7.2%
COc1c(C(=O)Nc2ccccc2)oc2ccc(NC(=O)C3CCCCC3)cc12 [SN00798797] | 3.8%
CCCCn1c(=O)[nH]c(=O)c2c1nc(-c1ccc(-c3cccc([N+](=O)[O-])c3)o1)n2CC [SN00775781] | 37.2%
O=C(COc1ccc(F)cc1)N1CCN(c2nc(CN3CCCC3)cs2)CC1 [SN00799511] | 1.1%
CCn1nnc2c(C(=O)NCCC3=CCCCC3)c(C)sc2c1=O [SN00799184] | 2.6%
COc1cccc(Cn2c(CNC(=O)CCc3c(C)noc3C)nc3cccnc32)c1 [SN00793247] | 17.5%
CCC(=O)Nc1cccc(-c2noc(C3CCCN(C(=O)c4ccc(C)c(F)c4)C3)n2)c1 (stereo not shown) [SN00797220] | 14.6%
CC(=O)N1CCCN(C(=O)c2cnn(C(C)(C)C)c2C)CC1 [SN00778131] | 0.0%
O=C(NCCC1=CCCCC1)C1CCN(c2nc3cccnc3n(Cc3ccccc3)c2=O)CC1 [SN00790039] | 11.4%

same assay, conditions: 48 h, re-assessment

Compound | % Inhibition n=2 48h
Cc1ccc(-c2nnn(CC(=O)N3CCCCCC3c3cccn3C)n2)cc1 (stereo not shown) [SN00778086] | 0.0%
CCOC(=O)N1CCN(C(=O)c2nn(-c3ccccc3)c3c2CCC3)CC1 [SN00778954] | 33.3%
